The test system of one data set is HIV-1 group M clades. To be noted: read-out: IC50, antiviral activity against all HIV-1 group M clades; cited from earlier work.
For data set [1], the system named is HIV-1 BaL pseudotyped virus. It is filed as cell-based. The conditions noted are these: for IC50: read-out: IC50, inhibition of HIV-1 BaL viral entry.
Another data set deals with Env / gp120. To be noted: cited from earlier work.
Data set [2] concerns HIV-1 BaL pseudotyped virus.
Data set [3] relates to fully infectious HIV-1 BaL. Put plainly: Virolysis assay, p24 leakage ELISA, fully infectious virus. The conditions noted are these: FIG. 5; read-out: IC50 for p24 leakage from fully infectious HIV-1 BaL.
Data set [4] deals with HIV-1 BaL pseudovirus. The conditions noted are these: 100 nM, 10 to 30 min at 37° C., compared with PBS treated virus.
Protocol: The compounds were incubated with the HIV-1 BaL pseudovirus for 30 min at 37° C. before fixing the virions with 0.1% paraformaldehyde and loaded onto a holey carbon 200 mesh grid for TEM analysis. The grids were stained with 1% uranyl acetate and loaded onto a JEM 2100 microscope system (JEOL, Japan) operated at 120 kV. Energy-dispersive X-ray (EDX) spectroscopy was conducted on the sample (blue) and the empty mesh (red) in order to confirm assignment of virion particles.
Transmission electron microscopy (TEM) analysis was conducted to assess the morphology of untreated and D4- and D8-treated virions. Pseudotyped HIV-1 BaL was treated with D4 or D8 at 100 nM from 10 to 30 min at 37° C. The samples were then spun for 2 hours at 16,000 rpm in an ultracentrifuge (Eppendorf) at 4° C. The residual virions were fixed using 0.1% paraformaldehyde for 15 min at 4° C. The paraformaldehyde was filtered using a 100 kDa filter (Millipore), and the virions were resuspended in deionized water. The samples were then loaded onto a lacey carbon 200 mesh grid (Pacific Grid Tech), and the grid was then negatively stained using 2% uranyl acetate. Once the grid was dried, the samples were loaded onto a JEM 2100 microscope system (JEOL, Japan) operated at 120 kV. The virus images and the background mesh were evaluated by energy-dispersive X-ray spectroscopy (EDX) in order to confirm identification of virions. […]
Data set [5] has as its system HOS.T4.R5 cells.
Data set [6] relates to VSV pseudotyped virus. It is filed as cell-based, Vesicular Stomatitis Virus.
The subject of data set [7] is VSV pseudotyped virus. On the set-up: species or system Vesicular Stomatitis Virus.
The test system of a further data set is A-MLV pseudotyped virus. The data set is classed as cell-based, Amphotropic Murine Leukemia Virus.
Data set [8] deals with HOS.T4.R5 cells. Briefly: Cytotoxicity assay with WST-1 reagent. Also noted: dose or concentration left out as unconfirmed. To be noted: 24 hours post-exposure, FIG. 3. (In general: Formazan colour is commonly taken as a measure of viable cells.)
Data set [9] concerns HIV-1 BaL pseudovirus. The conditions noted are these: D4 and D8 50 nM; competitor serial dilution from 0.5 μM.

This is an account of results in patent publication US9233138B2, “Compositions for promoting HIV-1 virolysis and methods using same” (Drexel University, priority 2013, dated 2016).

“Also recorded” adds a separate entry of the source. Where two headings read alike, the source gives them in different places.

One may read the IC50 as the midpoint of a concentration-inhibition curve. Regarding microvirin [MVN, reference compound], the IC50 in the data set on HIV-1 group M clades is 2 to 167 nM. Further, the “antiviral property / infectivity inhibition of MVN-based DAVEI” value in data set [1] is “only exhibited antiviral property”. In addition, in the data set on Env / gp120, the “causes gp120 shedding?” value is on record as “No” and the “conformationally activates Env?” value was “No”. Moreover, in data set [2] (FIG. 10C), the “virolytic property of MVN-based DAVEI” value was “only exhibited antiviral property”.

As for “D4: fusion of CVN and MPER with (Gly4Ser)4-His6 linker: SEQ ID NO:1-(SEQ ID NO:6)4-SEQ ID NO:5-SEQ ID NO:11”, the half-inhibitory concentration (IC50) in data set [3] is 200 ± 22 nM; in data set [1], 0.58 ± 0.069 nM; in data set [2] (HIV-1 BaL pseudovirus, 30 min incubation, relative to 1% Triton X-100 lysed virus, FIG. 4A, read-out: IC50 for viral leakage (p24 release)), 14.2 ± 0.8 nM. For the same molecule, the “virion morphology after treatment (TEM)” value in the data set on HIV-1 BaL pseudovirus [4] is given as “significant morphological differences relative to intact virions”. The “cytotoxicity (cell viability, WST-1)” value with HOS.T4.R5 cells [5] is reported as “No statistically significant differences”. The “viral entry inhibition, VSV envelope pseudovirus” value with VSV pseudotyped virus [6] was “no significant dose-dependent viral entry inhibition”. For the same molecule, the “p24 leakage, VSV-envelope control virus” value in the data set on VSV pseudotyped virus [7] is on record as “no leakage”.

Take “(G4S)4-MPER [linker(4)-MPER, reference compound]”: the “virus inactivation accompanying p24 leakage” value in [1] is listed as “not associated with equivalent virus inactivation”. In addition, the p24 leakage entry in [2] (non-His-tagged peptide, FIG. 13C) is on record as “Significant p24 leakage”.

B1: cyanovirin-N (protein)
chain: LGKFSQTCYNSAIQGSVLTSTCERTNGGYNTSSIDLNSVIENVDGSLKWQPSNFIETCRNTQLAGSSELAAECKTRAQQFVSTKINLDDHIANIDGTLKYE
modifications: cyanovirin-N fragment
With B1, the 50% inhibitory concentration (IC50) in [1] came to 0.16 ± 0.031 nM. Besides, the “viral entry inhibition, A-MLV envelope pseudovirus” value in the data set on A-MLV pseudotyped virus is recorded as “no significant dose-dependent viral entry inhibition”. Also, in the data set on Env / gp120, the “causes gp120 shedding?” value is recorded as “No” and the “conformationally activates Env?” value is given as “No”. Moreover, in data set [2] (at concentrations up to at least 10 μM, FIG. 4A), the “leakage of intraviral p24” value is “unable to induce the leakage of intraviral p24”. In the data set with HOS.T4.R5 cells [8], the “cytotoxicity (cell viability, WST-1)” value is given as “no significant cytotoxicity; also recorded: No statistically significant differences”. In addition, the “viral entry inhibition, VSV envelope pseudovirus” value in the data set on VSV pseudotyped virus [6] was “no significant dose-dependent viral entry inhibition”. In the data set with HIV-1 BaL pseudovirus [9], the “competition of the virolytic activity of both D4 and D8” value is given as “observed in a dose-dependent fashion”.
